Laboratory results: patent US20210346398A1, “COMBINATIONS WITH A C-19 STEROID FOR TREATING CANCERS” (priority 2018, published 2021)
“And” between values parts separate entries of the source, which are not always exact repeats. Equal values may be shown once.

Legend:
T-47D cells = assay: WST-1 proliferation assay of T-47D cells; format: cell-based, human; conditions: for Single drug: absorbance at 450 nm as % of solvent control / Combi: absorbance at 450 nm as % of solvent control, agent in combination with 4-OHT / SE1 (synergistic effect, A anti-cancer compound alone / A combination): 4 days; for Single drug: absorbance at 450 nm as % of solvent control: OHT 10 or 20 μM, EN 10 μM, ETM 25 nM, FUL 1.0 μM, EXE 0.1 μM, Pab 50 nM, Doc 1.0 nM; for Combi: absorbance at 450 nm as % of solvent control, agent in combination with 4-OHT: agent at the single drug concentration plus 4-OHT; for SE1 (synergistic effect, A anti-cancer compound alone / A combination): agent plus 4-OHT versus agent alone; for growth inhibition by the combination with 4-OHT compared to the individual substances alone: FIG. 2, 7 days
Source text: The human breast cancer cell line T-47 D (ACC 739) was obtained from DSMZ as frozen cell pellet (Deutsche Sammlung von Mikroorganismen und Zellkulturen). Originally, these cells T-47D cell line was isolated by Keydar et al. (1979) from a pleural effusion obtained from a patient with an infiltrating ductal carcinoma of the breast T-47D is expressing the ER, PR and AR but lacking HER2/neu overexpression. Thus, T-47D may represent a cell line representative for the most prevalent breast cancer subtype.
T-47D were grown routinely in RPMI medium containing 10% fetal calf serum (FCS) and antibiotics in a humidified incubator at 36.5° C./90% humidity and 5% CO2. Cells were maintained in cell culture bottles for less than 20 passages before the individual experiments were conducted; cell suspensions were cultured 96 well plates and exposed at various concentrations of the individual agents; incubation time varied as indicated in the respective figures. WST-1 assay was used to monitor proliferation at 450 nm wavelength.
Growth was as compared to control using WST-1 assay (monitoring absorption at 450 nm wavelength as indicator for cell viability compared to growth control).
(§1) T-47D cells were grown routinely in RPMI medium containing 10% fetal calf serum (FCS) and antibiotics in a humidified incubator at 36.5° C./90% humidity and 5% CO2. […] WST-1 assay was used to monitor proliferation at 450 nm wavelength.

MDAMB453 = assay: WST-1 proliferation assay of MDAMB453 cells; format: cell-based, human; conditions: 4 days; for Single drug: absorbance at 450 nm as % of solvent control: OHT 10 or 20 μM, EN 5 μM, ETM 25 nM, FUL 1.0 μM, EXE 0.1 μM, Pab 50 nM, Doc 1.0 nM; for Combi: absorbance at 450 nm as % of solvent control, agent in combination with 4-OHT: agent at the single drug concentration plus 4-OHT; for SE1 (synergistic effect, A anti-cancer compound alone / A combination): agent plus 4-OHT versus agent alone
VCaP cells = assay: WST-1 proliferation assay of VCaP cells; conditions: for absorbance at 450 nm as % of solvent control, single compound: EN 10 μM, ABI 10 μM, 4-OHT concentration not stated; for Combi: absorbance at 450 nm as % of solvent control, agent in combination with 4-OHT: EN 10 μM or ABI 10 μM plus 4-OHT
ZR-75-1 = assay: WST-1 proliferation assay of ZR-75-1 cells; format: cell-based, human; conditions: 4 days; for Single drug: absorbance at 450 nm as % of solvent control: OHT 10 or 20 μM, EN 10 μM, ETM 25 nM, FUL 1.0 μM, EXE 0.1 μM, Pab 50 nM, Doc 1.0 nM; for Combi: absorbance at 450 nm as % of solvent control, agent in combination with 4-OHT: agent at the single drug concentration plus 4-OHT; for SE1 (synergistic effect, A anti-cancer compound alone / A combination): agent plus 4-OHT versus agent alone
LNCaP cells = assay: WST-1 proliferation assay of LNCaP cells; conditions: for absorbance at 450 nm as % of solvent control, single compound: EN 10 μM, ABI 10 μM, 4-OHT concentration not stated; for Combi: absorbance at 450 nm as % of solvent control, agent in combination with 4-OHT: EN 10 μM or ABI 10 μM plus 4-OHT
ZR-75-1N cells = assay: WST-1 proliferation assay of ZR-75-1N cells; format: cell-based, human; conditions: FIG. 3B, 4-OHT 20 μM plus Docetaxel 1, 2, 4, 8 nM, 5 days, average of 3 experiments
Method: as §1
Further the human breast cancer cell line ZR-75-1N was cultured as described above and subjected to 4-OHT at a concentration of 20 μM and Docextaxel (Doc) at various concentrations (1, 2, 4, and 8 nM)) as single drugs or in combination for 5 days.

[1] = FIG. 4A, 4-OHT 10 μM, Bicalutamide 5 or 10 μM, Enzalutamide 5 or 10 μM, day 5

Structure (SMILES) | Single drug: absorbance at 450 nm as % of solvent control (T-47D cells) | absorbance at 450 nm as % of solvent control, single compound (VCaP cells) | absorbance at 450 nm as % of solvent control, single compound (LNCaP cells) | Combi: absorbance at 450 nm as % of solvent control, agent in combination with 4-OHT (T-47D cells) | Single drug: absorbance at 450 nm as % of solvent control (MDAMB453) | Combi: absorbance at 450 nm as % of solvent control, agent in combination with 4-OHT (MDAMB453) | Single drug: absorbance at 450 nm as % of solvent control (ZR-75-1) | Combi: absorbance at 450 nm as % of solvent control, agent in combination with 4-OHT (ZR-75-1) | SE1 (synergistic effect, A anti-cancer compound alone / A combination) (T-47D cells) | SE1 (synergistic effect, A anti-cancer compound alone / A combination) (MDAMB453) | SE1 (synergistic effect, A anti-cancer compound alone / A combination) (ZR-75-1) | other results
C[C@]12CC[C@H]3[C@@H](CCC4=C(O)C(=O)CC[C@@]43C)[C@@H]1CC[C@@H]2O [4-OHT, 4-hydroxytestosterone] | 50 % of solvent control | 33 % of solvent control | 78 % of solvent control | – | – | – | – | – | – | – | – | Single drug: absorbance at 450 nm as % of solvent control (MDAMB453; listed as OHT): 55 % of solvent control and 40 % of solvent control; Single drug: absorbance at 450 nm as % of solvent control (MDAMB453; listed as OHT20): 76 % of solvent control; effect on cell growth as single compound (VCaP cells; FIG. 4B): very sensitive; Single drug: absorbance at 450 nm as % of solvent control (ZR-75-1; listed as OH20): 71 % of solvent control; effect on cell growth as single compound (LNCaP cells; [1]): only a slight effect; effect on cell growth as single compound (LNCaP cells; FIG. 5, 4-OHT 10 μM, Abiraterone 10 μM, day 5): only a slight effect
C[C@]12CC[C@H](O)CC1=CC[C@@H]1[C@@H]2CC[C@]2(C)C(c3cccnc3)=CC[C@@H]12 [Abiraterone] | – | 104 % of solvent control | 96 % of solvent control | – | – | – | – | – | – | – | – | Combi: absorbance at 450 nm as % of solvent control, agent in combination with 4-OHT (VCaP cells): 28.11 % of solvent control; Combi: absorbance at 450 nm as % of solvent control, agent in combination with 4-OHT (LNCaP cells): 90.57 % of solvent control
CC(=O)O[C@@]12CO[C@@H]1C[C@H](O)[C@@]1(C)C(=O)[C@H](O)C3=C(C)[C@@H](OC(=O)[C@H](O)[C@@H](NC(=O)OC(C)(C)C)c4ccccc4)C[C@@](O)([C@@H](OC(=O)c4ccccc4)[C@H]21)C3(C)C [Docetaxel] | 31 % of solvent control | – | – | 20 % of solvent control | 103 % of solvent control | 89 % of solvent control | 72 % of solvent control | 43 % of solvent control | – | – | – | effect on proliferation of the combination with 4-OHT (ZR-75-1N cells): clear effect of the combination is seen at the lowest dose; effect on proliferation of the combination with 4-OHT compared to the single drugs (T-47D cells; FIG. 3A, Docetaxel 1, 2, 4, 8 nM, 5 days): synergistic effect
CC/C(=C(\c1ccc(O)cc1)c1ccc(OCCNC)cc1)c1ccccc1 [Endoxifen] | 54 % of solvent control | – | – | 35 % of solvent control | 113 % of solvent control | 39 % of solvent control | 84 % of solvent control | 49 % of solvent control | 1.5 | 1.2 | 1.7 | –
CNC(=O)c1ccc(N2C(=S)N(c3ccc(C#N)c(C(F)(F)F)c3)C(=O)C2(C)C)cc1F [Enzalutamide] | 62 % of solvent control | 32 % of solvent control | 84 % of solvent control | 28 % of solvent control | 66 % of solvent control | 57 % of solvent control | 71 % of solvent control | 55 % of solvent control | 2.2 | 1.2 | 1.3 | Combi: absorbance at 450 nm as % of solvent control, agent in combination with 4-OHT (VCaP cells): 30 % of solvent control; effect on cell growth as single compound (VCaP cells; FIG. 4B): very sensitive; effect on cell growth of the combination with 4-OHT (VCaP cells; FIG. 4B): synergistic effect; Combi: absorbance at 450 nm as % of solvent control, agent in combination with 4-OHT (LNCaP cells): 58 % of solvent control; effect on cell growth of the combination with 4-OHT (LNCaP cells; FIG. 4A, 4-OHT 10 μM plus Bicalutamide 10 μM or Enzalutamide 10 μM, day 5): growth inhibition with a significant synergistic effect; effect on cell growth as single compound (LNCaP cells; [1]): not affected
C=C1C[C@@H]2[C@H](CC[C@]3(C)C(=O)CC[C@@H]23)[C@@]2(C)C=CC(=O)C=C12 [Exemestane] | 70 % of solvent control | – | – | 47 % of solvent control | 118 % of solvent control | 33 % of solvent control | 81 % of solvent control | 57 % of solvent control | – | – | – | growth inhibition by the combination with 4-OHT compared to the individual substances alone (T-47D cells): significant growth inhibition
C[C@]12CC[C@@H]3c4ccc(O)cc4C[C@@H](CCCCCCCCC[S+]([O-])CCCC(F)(F)C(F)(F)F)[C@H]3[C@@H]1CC[C@@H]2O (stereo partly shown) [Fulvestrant] | 38 % of solvent control | – | – | 22 % of solvent control | 80 % of solvent control | 27 % of solvent control | 90 % of solvent control | 43 % of solvent control | – | – | – | growth inhibition by the combination with 4-OHT compared to the individual substances alone (T-47D cells): significant growth inhibition
CC(=O)c1c(C)c2cnc(Nc3ccc(N4CCNCC4)cn3)nc2n(C2CCCC2)c1=O [Palbociclib] | 80 % of solvent control | – | – | 33 % of solvent control | 112 % of solvent control | 120 % of solvent control | 91 % of solvent control | 71 % of solvent control | 2.4 | 0.9 | 1.3 | –
